This is an account of results in PubChem BioAssay (NCI).

Where “and” joins values, the source holds several entries; their conditions need not be identical. Equal values may be shown once.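 How tested: cells in 96-well plates exposed to compound for 48 hours at five concentrations. GI50 = concentration required for 50% inhibition of growth. TGI denotes the concentration required for complete inhibition of growth.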 Where a SMILES comes first, the peptide text is derived from it. The star is where a group is joined. Boc = CC(C)(C)OC(=O)*; OBn = c1ccc(CO*)cc1

Holding throughout (assay): growth of human tumour cells (NCI), 48 h
The test system of assay [1] is KM12 colon.
Assay [2] deals with SNB-19 CNS.
Assay [3] deals with MDA-MB-435.
For assay [4], the system named is M14 melanoma.
The test system of assay [5] is TK-10 renal.
The subject of assay [6] is SF-268 CNS.
Assay [7] relates to A498 renal.
Assay [8] deals with U251 CNS.
For assay [9], the system named is HOP-92 NSCLC.
For assay [10], the system named is OVCAR-8 ovarian.

In the case of `OCC(CCc1ccccc1I)C1=CCC2(CC1)OCCO2` (configuration not stated), the TGI in assay [1] was 31 µM; in assay [2], 37.7 µM; in assay [3] it was 30.7 µM; in [4], 35.3 µM; in assay [5], 50.7 µM; in assay [6], 50 µM. In addition, the TGI in [7] was 55.9 µM; in [8] it was 41.8 µM; in assay [9], 28.6 µM; in assay [10] it was 43.1 µM.

As to `CC1(C)C(CCO)CC1n1ccc(=O)[nH]c1=O` (configuration not stated), the TGI in assay [1], in [2], in assay [3], in assay [4], in assay [5] and in assay [6] was above 100 µM each time. Moreover, the TGI in [7], in assay [8] and in assay [9] was above 100 µM in each case.

On to `CC(=O)NC1=C(NCCCl)C(=O)c2ccccc2C1=O`, for which the TGI in [1] is above 100 µM; in [2], above 100 µM; in assay [3], 31.1 µM; in assay [4], 27.7 µM; in assay [6], above 100 µM; in [8], above 100 µM. Besides, the results for the TGI in assay [9] and in [10] were above 100 µM and 52.4 µM, respectively.

As to `O=C1C=C2CCC[C@H]3OC(=O)C[C@@]23CC1`, the TGI in assay [1], in assay [2], in [3], in assay [4], in assay [5] and in assay [6] was above 100 µM each time. Moreover, the TGI in assay [7], in assay [8] and in assay [9] was above 100 µM in each case.

For the compound `COC(=O)c1c(CC(Cc2ccc3c(c2)CCCC3)C(=O)OC)ccc2c1CCCC2` (configuration not stated), the TGI in assay [1], in [2], in assay [3], in assay [4], in assay [5] and in assay [6] was above 100 µM throughout. Moreover, the TGI in [7], in assay [8], in [9] and in [10] was above 100 µM each time.

Regarding `O=C1CC(C(OCc2ccccc2)C(OCc2ccccc2)C(COCc2ccccc2)OCc2ccccc2)CC(=O)N1` (configuration not stated), the GI50 in assay [1] was > 100 µM and 37.9 µM; in assay [8], > 100 µM and 40 µM; in [9], 90.7 µM and 30.3 µM. Moreover, the TGI in assay [1], in [2], in assay [3], in assay [4], in [5] and in assay [6] was above 100 µM throughout. For the same compound, the TGI in assay [7], in assay [8], in assay [9] and in assay [10] was above 100 µM each time.

Take `COC(=O)C(=O)C(C(=O)C(=O)Nc1cccc([N+](=O)[O-])c1)c1nc2ccc(Cl)cc2[nH]c1=O` (configuration not stated): the TGI in assay [1], in assay [2], in assay [3], in [4], in assay [5] and in assay [6] was above 100 µM each time. The TGI in assay [8], in [9] and in [10] was above 100 µM throughout.

`NC(=O)c1cc(N(CCO)CCO)c([N+](=O)[O-])cc1[N+](=O)[O-]`: the TGI in assay [1], in [2], in [3], in assay [4], in assay [5] and in assay [6] was above 100 µM each time. Moreover, the TGI in assay [7], in assay [8] and in assay [9] was above 100 µM throughout.

On to `CC(C)CC(NC(=O)OC(C)(C)C)C(=O)NC(CC(=O)OCc1ccccc1)C(=O)OCc1ccccc1` (stereo not drawn) (Boc-Leu-Asp(OBn)-OBn; configuration not given here), for which the TGI in assay [1] is above 100 µM; in assay [2], 99.5 µM; in assay [3], above 100 µM; in [4] it was 38.6 µM; in assay [5], 60.9 µM; in [6] it was above 100 µM. Further, the TGI in assay [7] was above 100 µM; in assay [8], 81.7 µM; in [9] it was above 100 µM; in assay [10], above 100 µM.

As to `CN(C(=O)c1ccc2c(c1)sc1c(=O)n(C)c3ccccc3c12)c1ccccc1`, the TGI in assay [1], in assay [2], in [3], in assay [4], in [5] and in [8] was above 100 µM throughout. Moreover, the TGI in assay [9] and in assay [10] was above 100 µM each time.

For the compound `Cc1ccc(-c2nnc(CCCCCCCCc3nnc(-c4ccc(C)cc4O)n3N)n2N)c(O)c1`, the TGI in assay [1], in [2], in assay [3], in assay [4], in assay [5] and in assay [6] was above 100 µM in each case. The TGI in [7], in assay [8], in [9] and in [10] was above 100 µM in each case.

`O=[N+]([O-])c1ccc2oc(=Nc3ccccc3)c(Nc3ccccc3)nc2c1`: the TGI in assay [1], in [2], in assay [3], in assay [5], in assay [6] and in [7] was above 100 µM each time. Besides, the figures for the TGI in assay [8], in assay [9] and in assay [10] were above 100 µM, 93 µM and above 100 µM, respectively.

Regarding `O=S(=O)(c1ccc(-c2nnc(-c3ccc(F)cc3)o2)cc1)c1ccc(-c2nnc(-c3ccc(F)cc3)o2)cc1`, the TGI in assay [1] is above 100 µM; in assay [2], above 100 µM; in [3] it was above 100 µM; in assay [4] it was above 100 µM; in assay [6], above 100 µM; in assay [7] it was 58.6 µM. For the same compound, the TGI in assay [8], in assay [9] and in assay [10] was above 100 µM each time.

Consider `CCN(CC)CCCNC(=O)c1cc2cc(NC(=O)c3cc4cc([N+](=O)[O-])ccc4[nH]3)ccc2[nH]1`, for which the TGI in [1], in assay [2], in assay [3], in assay [4], in assay [5] and in assay [6] was above 100 µM each time. Moreover, the TGI in [7] is 75.7 µM; in [9], above 100 µM; in assay [10] it was above 100 µM.
